Patent US20230149409A1, “TREATMENT OF HUMAN PAPILLOMAVIRUS-ASSOCIATED CANCERS BY PD-L1 INHIBITORS” (priority 2021, published 2023)
Marks after values point to notes of the source that are not given here.

Experiments:
[1] = test system: advanced solid tumors (HPV-positive tumors); assay: Phase 1 open-label clinical trial of Compound 1; assay type: in vivo, human
Source text: This study is a Phase 1, open-label, dose-finding study for Compound 1 (see Table 1, supra). Eligible participants enrolled will receive Compound 1 as an oral tablet (50-mg, 100-mg, or 400-mg) during 21-day or 28-day cycles until disease progression, unacceptable toxicity, death, withdrawal of consent, or any other reason. Continuous treatment administration may be once daily (QD) or twice daily (BID).
Following a dose escalation study to identify a pharmacological active dose, this trial will enroll up to 60 participants with HPV-positive tumors at 1 or more pharmacologically active dose (PAD) doses to further evaluate safety, efficacy, PK, and pharmacodynamic effects. A maximum of 20 participants may be enrolled per dose level. Participants must have HPV-positive tumors as determined by a local laboratory using p16 IHC, polymerase chain reaction methods, or other locally-available method to detect HPV.
Participants are eligible to be included in the study only if all of the following criteria apply: • 1. Male and female participants must be ≥ 18 years of age at the time of signing the ICF. • 2. Ability to comprehend and willingness to sign an ICF. • 3. Must be willing and able to conform to and comply with all Protocol requirements, including all scheduled visits, Protocol procedures, and the ability to swallow oral medication. • 4. Histologically confirmed advanced solid tumors with measurable lesions (per RECIST v1.1 or RANO for primary brain tumors) that are considered nonamenable to surgery or other curative treatments or procedures. […] Participants must have disease progression after treatment with available therapies that are known to confer clinical benefit or who are intolerant to or ineligible for standard treatment. • 6. Willingness to undergo a tumor biopsy to obtain tumor tissue. • 7. Eastern Cooperative Oncology Group performance status score of 0 or 1. • 8. Life expectancy > 12 weeks. • 9. Willingness to avoid pregnancy or fathering children. • 10. For the cohort participating in the extension to participants with HPV-positive solid tumors: any HPV-positive solid tumor which has received prior standard therapy.
Adult patients (≥18 years) with advanced solid tumors were enrolled into this open-label study. Patients had disease progression after standard available therapy, or were intolerant of, or ineligible for standard treatment. Measureable disease was required. A modified 3+3 dose escalation design was employed, followed by dose expansions. The primary endpoints were safety and tolerability of Compound 1, identification of a pharmacologically active dose and/or maximum tolerated dose, and confirmation of the recommended Phase 2 dose. Secondary endpoints included PK, pharmacodynamics, and efficacy as assessed by investigator-determined objective response and disease control rates (complete response (CR), partial response (PR), or stable disease (SD)).
Patients that were confirmed to have HPV+ or confirmed to be HPV- are indicated below. Patients of unknown HPV status are also indicated.

[2] = biological target: T1, PD-⅟PD-L1 (recombinant human PD-L1 protein and human PD-1 protein) (Homo sapiens, UniProt Q9NZQ7); assay: Homogeneous Time-Resolved Fluorescence (HTRF) PD-1/PD-L1 binding assay; conditions: 3 nM PD1, 10 nM PD-L1, 25° C., PBS pH 7.4
T1 construct: Recombinant human PD-L1 protein (19-238) with a His-tag at the C-terminus; purchased AcroBiosystems PD1-H5229 (PD-L1); PD1-H5257 (PD-1)

[3] = test system: select advanced solid tumors (HPV+ carcinomas); assay: Phase 1 open-label clinical trial of Compound 30; assay type: in vivo, human; design: key: complete response (CR); partial response (PR); stable disease (SD); progressive disease (PD)
Source text: Two open-label, nonrandomized, global multicenter Phase 1 studies in participants with select advanced solid tumors are being conducted for Compounds 24 and 30 in Table 1 supra. In addition to the primary endpoint of determining safety, tolerability, PAD and/or maximum tolerated dose (MTD) of each compound, the studies are exploring preliminary efficacy (complete response (CR), partial response (PR), stable disease (SD), or progressive disease (PD)) in participants with select advanced cancers, including virally mediated tumors such as HPV+ carcinomas. HPV+ tumors can be determined by a local laboratory using p16 IHC, polymerase chain reaction methods, or other locally-available method to detect HPV. Results for patients having solid tumors whose HPV+ status was confirmed, suspected or negative are shown below for Compound 24 and Compound 30 in Tables 4 and 5, respectively.

[4] = Anal, Confirmed HPV+, 400 mg BID
[5] = Anal, Total (all HPV status), 400 mg BID
[6] = Anal, Unknown HPV status, 400 mg BID
[7] = Cervical, Confirmed HPV+, 400 mg BID
[8] = Cervical, Total (all HPV status), 400 mg BID
[9] = Total of tumor types, Confirmed HPV+
[10] = Total of tumor types, Total (all HPV status)
[11] = Total of tumor types, Unknown HPV status

T1 sequence (Q9NZQ7 19-238): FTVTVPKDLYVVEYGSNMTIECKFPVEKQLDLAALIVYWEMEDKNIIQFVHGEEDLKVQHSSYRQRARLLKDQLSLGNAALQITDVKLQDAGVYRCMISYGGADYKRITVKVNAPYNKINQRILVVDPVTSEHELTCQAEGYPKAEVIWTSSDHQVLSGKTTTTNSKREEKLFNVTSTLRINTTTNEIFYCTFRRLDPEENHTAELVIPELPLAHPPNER

Cc1c(Nc2nccc3cc(CN4CC[C@@H](O)C4)cnc23)cccc1-c1cccc(-c2nc3cc(CN4CC[C@@H](C(=O)O)C4)cc(C#N)c3o2)c1C [Compound 1, (R)-1-((7-cyano-2-(3′-(3-(((R)-3-hydroxypyrrolidin-1-yl)methyl)-1,7-naphthyridin-8-ylamino)-2,2′-dimethylbiphenyl-3-yl)benzo[d]oxazol-5-yl)methyl)pyrrolidine-3-carboxylic acid]
ORR based on PR or CR ([1]; 14 evaluable patients, 400 mg BID or 800 mg BID, factoring in responses in patients with unknown HPV status): about 28.6% | number of patients with PD [1, 4]: 1 | number of patients with SD [1, 4]: 1 | number of patients with PR/CR ([1]; Anal, Confirmed HPV+, patient received 800 mg BID): 1^a | number of patients with PD [1, 5]: 3 | number of patients with SD [1, 5]: 2 | number of patients with PR/CR ([1]; Anal, Total (all HPV status), 400 or 800 mg BID): 3 | number of patients with PD [1, 6]: 2 | number of patients with SD [1, 6]: 1 | number of patients with PR/CR ([1]; Anal, Unknown HPV status, 1 out of 2 patients received 800 mg BID): 2^b | number of patients with PD [1, 7]: 2 | number of patients with SD [1, 7]: 1 | number of patients with PD [1, 8]: 2 | number of patients with SD [1, 8]: 1 | number of patients with PD ([1]; HNSCC, Confirmed HPV-, patient received 800 mg BID): 1^a | number of patients with PD ([1]; HNSCC, Total (all HPV status)): 1 | number of patients with SD ([1]; Penile, Confirmed HPV+, 400 mg BID): 1 | number of patients with SD ([1]; Penile, Total (all HPV status), 400 mg BID): 1 | number of patients with PD [1, 9]: 3 | number of patients with PR/CR [1, 9]: 2 | number of patients with SD [1, 9]: 3 | number of patients with PD ([1]; Total of tumor types, Confirmed HPV-): 1 | number of patients with PD [1, 10]: 6 | number of patients with PR/CR [1, 10]: 4 | number of patients with SD [1, 10]: 4 | number of patients with PD [1, 11]: 2 | number of patients with PR/CR [1, 11]: 2 | number of patients with SD [1, 11]: 1 | number of patients with PR/CR ([1]; Vaginal, Confirmed HPV+, 400 mg BID): 1 | number of patients with PR/CR ([1]; Vaginal, Total (all HPV status), 400 mg BID): 1

Cn1c(C(=O)Nc2cccc(-c3cccc(NC(=O)c4nc5c(n4C)CCN(CCC46CCC(C(=O)O)(CC4)C6)C5)c3Cl)c2Cl)nc2c1CCN(CCC13CCC(C(=O)O)(CC1)C3)C2 [Compound 30, 4,4′-(((((2,2′-dichloro-[1,1′-bipheiryl]-3,3′-diyl)bis(azanediyl))bis(carbonyl))bis(1-methyl-1,4,6,7-tetrahydro-5H-imidazo[4,5-c]pyridine-2,5-diyl))bis(ethane-2,1-diyl))bis(bicyclo[2.2.1]heptane-1-carboxylic acid)]
IC50 [2]: < 10 nM | Best Overall Response ([3]; Patient 1, 300 mg BID, Cervical cancer (SCC), p16 positive): PR | Best Overall Response ([3]; Patient 2, 300 mg BID, Nasopharyngeal (SCC), p16 negative): SD | Best Overall Response ([3]; Patient 3, 300 mg BID, Cervical cancer (SCC), p16 positive): SD | Best Overall Response ([3]; Patient 4, 400 mg BID, Cervical cancer (SCC), p16 positive): PD | Best Overall Response ([3]; Patient 5, 400 mg BID, Nasopharyngeal (SCC), HPV/p16 status Not determined): SD | Best Overall Response ([3]; Patient 6, 400 mg BID, Cervical cancer (SCC), Positive due to HSIL): SD | Best Overall Response ([3]; Patient 7, 400 mg BID, Acinic cell parotid gland carcinoma, HPV/p16 status Not determined): PD | Best Overall Response ([3]; Patient 8, 400 mg BID, Cervical cancer (adenosquamous), p16 positive): PR | Best Overall Response ([3]; Patient 9, 600 mg QD, Cervical cancer (SCC), p16 positive): PD | Best Overall Response ([3]; Patient 10, 600 mg QD, Cervical cancer (SCC and adenocarcinoma), HPV/p16 status Not determined): PD | Best Overall Response ([3]; Patient 11, 600 mg BID, Cervical cancer (SCC), p16 positive): PD | Best Overall Response ([3]; Patient 12, 600 mg BID, Penile cancer (SCC), p16 positive): SD | Best Overall Response ([3]; Patient 13, 200 mg BID, Anal canal (SCC), HPV/p16 status Not determined): PD
